Laboratory results from patent US20130158264A1, “Polymorphs of OSI-906” (priority 2010, published 2013).
Entries after “also recorded” stand apart in the source; their conditions may differ.

What was measured:
Assay type in all cases: physicochemical
[1] = Gravimetric moisture sorption; details: for water adsorbed: 25° C.; for XRPD form of the dried solid following moisture sorption analysis: dried at 60° C./0% RH after the experiment; for stability upon desorption (loss of water): humidity reduced below 15%
Protocol: Gravimetric Moisture Sorption: Gravimetric moisture sorption experiments were carried out on selected materials by first drying the sample at 40% RH and 25° C. until an equilibrium weight was reached or for a maximum of four hours. The sample was then subjected to an isothermal (25° C.) adsorption scan from 40 to 90% RH in steps of 10%. The sample was allowed to equilibrate to an asymptotic weight at each point for a maximum of four hours. Following adsorption, a desorption scan from 85 to 0% RH (at 25° C.) was run in steps of −10% again allowing a maximum of four hours for equilibration to an asymptotic weight. An adsorption scan was then performed from 0% RH to 40% RH in steps of +10% RH. The sample was then dried for 1-2 hours at 60° C. and the resulting solid analyzed by XRPD.

[2] = Slurry experiments (form conversion by XRPD)
Protocol: Slurry Experiments: Approximately 20-50 mg of select crystalline forms were weighed to individual 8 mL vials equipped with a magnetic stir bar. Either THF, water, EtOH, (80:20) EtOH:Water or IPA was added to obtain a free flowing slurry. After 3, 5, 7 and 11 days of equilibration at 50° C. or ambient temperature, solid from each slurry was recovered by centrifuge filtration through 0.45 μm nylon filters. The isolated solids were analyzed by XRPD to check for form conversion. […] (Table 22).

[3] = Additional experiments to isolate OSI-906 solid forms (desiccant storage, exposure to lab humidity)
Protocol: Form C was confirmed to be a monohydrate of OSI-906 by gravimetric moisture sorption analysis. The solid form adsorbed approximately 4.2 wt % water at 30% RH which is consistent with the theoretical water content (4.1 wt %) of a monohydrate of OSI-906 (See FIG. 47). Upon desorption, hysteresis was observed between 25% RH and 5% RH. […] Based on these findings, an additional experiment was conducted in an effort to isolate this new crystalline form. An XRPD substrate containing Form C was placed in a desiccator at room temperature. After overnight storage, the slide was analyzed immediately by XRPD upon removal from the environment and brief exposure (<10 min) to the lab humidity (40-50% RH).

[4] = DSC isothermal hold at 105° C. followed by XRPD; details: held at 105° C. for five minutes
Protocol: Differential Scanning Calorimetry Analysis:
Differential scanning calorimetry (DSC) analyses were carried out on the samples “as is”. Samples were weighed in an aluminum pan, covered with a pierced lid, and then crimped. Analysis conditions were 30-105, 30-300, 30-350° C. at 10° C./min. In addition, isothermal holds were performed for a duration of five minutes at 105° C. and 200° C.
(See FIG. 49). In an effort to elucidate the additional thermal events, additional DSC experiments were conducted. Form C was held at 105° C. for five minutes, cooled to room temperature and then reheated to the same temperature. […] The isothermal hold experiment was repeated and the sample then exposed to the lab environment (˜40-50% RH) overnight. […] These observations are consistent with the results previously presented following storage of Form C under desiccant conditions.

[5] = Solid-state stability under storage conditions (XRPD)
Protocol: Solid-State Stability: Approximately 50 mg of Form A or Forms C+D were weighed to individual 8 mL vials and placed uncapped in the following storage conditions: 40° C. under vacuum, 80° C. under vacuum, desiccant, 25° C./60% RH and 40° C./75% RH. […] (Table 21). To assess the stability of Form A, the solid form was stored at different environmental conditions as described herein. Approximately 50 mg of Form A was weighed to 8 mL vials and placed uncapped in the following storage conditions: 40° C. under vacuum, 80° C. under vacuum, desiccant, 25° C./60% RH and 40° C./75% RH. After 24 hours and seven days of equilibration the solids were analyzed by XRPD. (See Table 21).

[6] = Thermal stress experiments (Forms B, D, E, and F) in vacuum oven
Protocol: Thermal Stress Experiments (Forms B, D, E, and F)
Solids were stressed under different temperature (40° C. or 80° C.) in a vacuum oven for a measured time period.

[7] = (80:20) EtOH:Water, prolonged equilibration at ambient and elevated temperature
[8] = water, prolonged equilibration at ambient and elevated temperature

| water adsorbed ([1]; 60% RH) | XRPD form of the dried solid following moisture sorption analysis [1] | stability upon desorption (loss of water) [1] | form stability in slurry [2, 7] | form stability in slurry ([2]; EtOH, ambient temperature) | form stability in slurry ([2]; EtOH, elevated temperature) | form stability in slurry ([2]; IPA) | form stability in slurry ([2]; THF) | form stability in slurry [2, 8] | XRPD Result after thermal stress ([6]; 40° C., 3 d) | SMILES | further results |
| --- | --- | --- | --- | --- | --- | --- | --- | --- | --- | --- | --- |
| 0.2 wt % | consistent with the initial form |  |  |  |  |  |  |  |  | CC1(O)CC(c2nc(-c3ccc4ccc(-c5ccccc5)nc4c3)c3c(N)nccn23)C1 (stereo not drawn) [Form A, cis-3-[8-amino-1-(2-phenyl-quinolin-7-yl)-imidazo[1,5-a]pyrazin-3-yl]-1-methylcyclobutanol] | hygroscopicity by gravimetric moisture sorption analysis [1]: non-hygroscopic; water adsorbed ([1]; 90% RH): 0.3 wt % |
| approximately 3.9 wt % | mixture of Forms C and D | not stable | conversion to Form C | Form C | converting to either Form A or E | conversion to Form A | conversion to Form A | stable | Form C | CC1(O)CC(c2nc(-c3ccc4ccc(-c5ccccc5)nc4c3)c3c(N)nccn23)C1 (stereo not drawn) [Form D, cis-3-[8-amino-1-(2-phenyl-quinolin-7-yl)-imidazo[1,5-a]pyrazin-3-yl]-1-methylcyclobutanol] | solid-state stability (summary in words) ([5]; one and seven days at 25° C./60% RH, 40° C./75% RH and under desiccant conditions): exhibited stability; solid-state stability (summary in words) ([5]; one and seven days at elevated temperature drying conditions (40° C. or 80° C. under vacuum)): conversion to Form C |
|  |  |  |  |  |  |  |  |  | Form C | CC1(O)CC(c2nc(-c3ccc4ccc(-c5ccccc5)nc4c3)c3c(N)nccn23)C1 (stereo not drawn) [Form F, cis-3-[8-amino-1-(2-phenyl-quinolin-7-yl)-imidazo[1,5-a]pyrazin-3-yl]-1-methylcyclobutanol] | XRPD Result after thermal stress ([6]; 80° C., overnight): Form C |
|  |  |  |  |  |  |  |  |  |  | CC1(O)CC(c2nc(-c3ccc4ccc(-c5ccccc5)nc4c3)c3c(N)nccn23)C1 (stereo not drawn) [Form I, cis-3-[8-amino-1-(2-phenyl-quinolin-7-yl)-imidazo[1,5-a]pyrazin-3-yl]-1-methylcyclobutanol] | XRPD form after exposure to lab humidity ([3]; 1 hour, lab humidity 40-50% RH): conversion to Form C |

| SMILES | water adsorbed ([1]; 60% RH) | XRPD form of the dried solid following moisture sorption analysis [1] | stability upon desorption (loss of water) [1] | form stability in slurry [2, 7] | form stability in slurry ([2]; EtOH, ambient temperature) | form stability in slurry ([2]; EtOH, elevated temperature) | form stability in slurry ([2]; IPA) | form stability in slurry ([2]; THF) | form stability in slurry [2, 8] | XRPD Result after thermal stress ([6]; 40° C., 3 d) | further results |
| --- | --- | --- | --- | --- | --- | --- | --- | --- | --- | --- | --- |
| CC1(O)CC(c2nc(-c3ccc4ccc(-c5ccccc5)nc4c3)c3c(N)nccn23)C1 (stereo not drawn) [Form C, cis-3-[8-amino-1-(2-phenyl-quinolin-7-yl)-imidazo[1,5-a]pyrazin-3-yl]-1-methylcyclobutanol] |  | mixture of Form C and an unidentified crystalline form; also recorded: mixture of Forms C+I | not stable | stable | exhibiting stability | conversion to Forms A or E | conversion to Form A | conversion to Form A | stable |  | water adsorbed ([1]; 30% RH): approximately 4.2 wt %; XRPD form after slurry ([2]; THF, room temperature, 11 day): Form A; XRPD form after desiccant storage ([3]; overnight in a desiccator at room temperature): Form I; XRPD form after DSC isothermal hold [4]: indicative of Form C |
